Experimental data as given in US20260102359A1, “COMBINATION TREATMENT OF DERMAL AND TRANSDERMAL FIBROTIC DISEASES, DISORDERS AND ASSOCIATED PAIN AND INFLAMMATION” (ERESINA, LLC, priority 2022, published 2026).
Structures can show the parent of a compound that is named as a salt. *1 amine or outer side, *2 acyl side, *3 side chain or, on linkers, in order; H or OH if unused. Where a SMILES comes first, the peptide text is derived from it. Bridges are numbered along the chain shown (N, C = ends). Roman numbers before positions name the chains, in order. [ ]: non-standard residue; d: D form. Actinocin(9to1) = Cc1c2oc3c(C)ccc(C(=O)[*:1])c3nc-2c(C(=O)[*:2])c(N)c1=O; NMeV = CN[C@H](C(=O)O)C(C)C; Sar = CNCC(=O)O

Each compound was assayed on hDMFa myofibroblast cells.

| Structure (SMILES) | Compound Myofibroblast Cytotoxicity Activity |
| --- | --- |
| CC(=O)O.Cc1cc2c(C(C)C)c(O)c(O)c(C=O)c2c(O)c1-c1c(C)cc2c(C(C)C)c(O)c(O)c(C=O)c2c1O [Cmpd 80, Acetate gossypol] | +++++ |
| CC(=O)NO [Cmpd 81, Acetohydroxamic Acid] | ++++ |
| CC(=O)c1ccccc1 [Cmpd 82, Acetophenone] | ++ |
| CC(=O)OCC[N+](C)(C)C.[I-] [Cmpd 83, Acetylcholine iodide] | ++ |
| Cc1c2oc3c(C)ccc(C(=O)N[C@@H]4C(=O)N[C@H](C(C)C)C(=O)N5CCC[C@H]5C(=O)N(C)CC(=O)N(C)[C@@H](C(C)C)C(=O)O[C@@H]4C)c3nc-2c(C(=O)N[C@@H]2C(=O)N[C@H](C(C)C)C(=O)N3CCC[C@H]3C(=O)N(C)CC(=O)N(C)[C@@H](C(C)C)C(=O)O[C@@H]2C)c(N)c1=O [Cmpd 86, Actinomycin D] (I: T[dV]P[Sar][NMeV] / II: T[dV]P[Sar][NMeV]; ester I:1-I:C, II:1-II:C; linker I:N-II:N via Actinocin(9to1)) | ++ |
| CC(C)(C)C(=O)OCOP(=O)(COCCn1cnc2c(N)ncnc21)OCOC(=O)C(C)(C)C [Cmpd 89, Adefovir Dipivoxil] | ++++ |
| Nc1ncnc2c1ncn2[C@@H]1O[C@H](COP(=O)(O)OP(=O)(O)OP(=O)(O)O)[C@@H](O)[C@H]1O [Cmpd 91, Adenosine 5-triphosphate] | +++ |
| Nc1ncnc2c1ncn2[C@@H]1O[C@H](COP(=O)(O)OP(=O)(O)O)[C@@H](O)[C@H]1O [Cmpd 92] | ++ |
| C=C1C(=O)O[C@@H]2C[C@@]3(C)CCC[C@H](C)C3=C[C@H]12 [Cmpd 97, Alantolactone] | ++++ |
| C=C1/C(=C\C=C2/CCC[C@]3(C)[C@@H]([C@H](C)CCCC(C)C)CC[C@@H]23)C[C@@H](O)C[C@@H]1O [Cmpd 98, Alfacalcidol] | +++ |
| Cn1c(=O)cc(N2CCC[C@@H](N)C2)n(Cc2ccccc2C#N)c1=O [Cmpd 100, Alogliptin Benzoate] | +++ |
| Cc1[nH]cnc1CN1CCc2c(c3ccccc3n2C)C1=O.Cl [Cmpd 101, Alosetron Hydrochloride] | ++++ |
| N=C(N)NC(=O)c1nc(Cl)c(N)nc1N [Cmpd 105, Amiloride HCl dihydrate] | ++ |
| CCCCc1oc2ccccc2c1C(=O)c1cc(I)c(OCCN(CC)CC)c(I)c1 [Cmpd 107, Amiodarone HCl] | +++ |
| CCOC(=O)C1=C(COCCN)NC(C)=C(C(=O)OC)C1c1ccccc1Cl (stereo not shown) [Cmpd 110, Amlodipine] | +++ |
| CCOC(=O)C1=C(COCCN)NC(C)=C(C(=O)OC)C1c1ccccc1Cl (stereo not shown) [Cmpd 111, Amlodipine Besylate] | ++++ |
| CCC(C)(C)c1ccc(CC(C)CN2C[C@@H](C)O[C@@H](C)C2)cc1 (stereo partly shown) [Cmpd 113, Amorolfine HCl] | +++ |
| COc1cc(NS(C)(=O)=O)ccc1Nc1c2ccccc2nc2ccccc12.Cl [Cmpd 116, Amsacrine hydrochloride] | +++ |
| S=C(NCc1ccc2c(c1)OCO2)N1CCN(c2ncnc3c2oc2ccccc23)CC1 [Cmpd 117, Amuvatinib (MP-470,HPK 56)] | ++ |
| C[C@@H](O[C@H]1OCCN(Cc2n[nH]c(=O)[nH]2)[C@H]1c1ccc(F)cc1)c1cc(C(F)(F)F)cc(C(F)(F)F)c1 [Cmpd 126, Aprepitant] | ++++ |
| O=C1CCc2ccc(OCCCCN3CCN(c4cccc(Cl)c4Cl)CC3)cc2N1 [Cmpd 129, Aripiprazole] | +++ |
| COc1cccc2c1cc([N+](=O)[O-])c1c(C(=O)O)cc3c(c12)OCO3 [Cmpd 130, Aristolochic Acid A] | ++ |
